Source: patent US6787534B2, “Sulfonamide-containing heterocyclic compounds” (Eisai Co., Ltd., priority 1999, dated 2004)
Converted amounts (≈) assume the structure as drawn.

Test system: aorta pieces of rat (angiogenesis, capillaries formed around the aorta)
Assay: Antiangiogenic effect: inhibition of capillary formation around rat aorta pieces incubated in collagen
Assay type: cell-based, rat (Sprague-Dawley)
Details: rat thoracic aorta pieces in Type I collagen gel, MCDB 131 medium; capillaries counted on 7th day from addition of test compound; three-fold dilutions from 10 μg/ml; read-out: IC50 (50% inhibiting concentration of angiogenesis)
Protocol: Pharmacological Experimental Example 1, Antiangiogenic Effect
The inhibition degree of angiogenesis which was observed when aorta pieces of rat were incubated in collagen was defined as an antiangiogenic effect. That is, the thoracic aorta excised from male rat of Sprague-Dawley strain (10-12 weeks age) was washed with a Hanks' solution (Gibco BRL, Gaithersburg, USA) so that fat tissues around there were removed minutely. The aorta was incised to prepare pieces of 2 mm square and they were allowed to stand in a 24-well plate holding the endothelial cells upside. Then, 500 μl of neutralized Type I collagen (Cell Matrix Type I-A; manufactured by Nitta Gelatin) were poured over each well and allowed to stand at room temperature for about 20 minutes in a clean bench to solidify the gel. After confirming that the gel was solidified, 500 μl of MCDB 131 medium (manufactured by Chlorella Kogyo) were added thereto followed by incubating in a CO2 incubator (5% CO2) at 37° C. On the next day, the culture medium was exchanged with 500 μl of MCDB 131 medium containing the test compound and the incubation was continued. After three days, the medium was again exchanged with 500 μl of MCDB 131 medium containing the test compound and, at the stage of the 7th day from the initiation of addition of the test compound, numbers of capillaries formed around the aorta were counted under a microscope. The solution containing the test compound was prepared in a three-fold dilution system where 10 μg/ml was the highest concentration.
Inhibiting rate was calculated from the following formula and 50% inhibiting concentration (IC50) for each test compound was determined.
Inhibiting Rate (%)=(C−T)/Cx100
C: Numbers of capillaries when no compound was added
T: Numbers of capillaries when a compound was added Table 1

For `O=S(=O)(Nc1cnc2c(Br)cccc2c1)c1cccnc1` [Example 1, N-(8-Bromoquinolin-3-yl)-3-pyridinesulfonamide], which IC50 is on record?
The IC50 was 0.49 µg/mL (≈ 1.35 µM).

With `Cc1cncc(S(=O)(=O)Nc2ccc3c(Br)cccc3n2)c1` [Example 2, N-(5-Bromoquinolin-2-yl)-5-methyl-3-pyridinesulfonamide] as the compound, how does the IC50 read?
The IC50 was 0.74 µg/mL (≈ 1.96 µM).

`N#Cc1ccc(S(=O)(=O)Nc2cnc3c(Br)cccc3c2)cc1` [Example 4, N-(8-Bromoquinolin-3-yl)-4-cyanobenzenesulfonamide] was tested. Which IC50 did it give?
The IC50 was 0.09 µg/mL (≈ 0.232 µM).

Which IC50 does the source give for `CCNS(=O)(=O)c1ccc(S(=O)(=O)Nc2cnc3c(Br)cccc3c2)cc1` [Example 6, N-(8-Bromoquinolin-3-yl)-4-(N-ethylsulfamoyl)benzenesulfonamide] here?
The IC50 was 0.12 µg/mL (≈ 0.255 µM).

`O=S(=O)(Nc1cnc2c(Br)cccc2c1)c1ccc2c(c1)CCC2` [Example 11, N-(8-Bromoquinolin-3-yl)-5-indanesulfonamide] was tested. Which IC50 did it give?
The IC50 was 0.04 µg/mL (≈ 0.0992 µM).

How did the IC50 turn out when `O=S(=O)(Nc1cnc2c(I)cccc2c1)c1cncc2ccccc12` [Example 15, N-(8-Iodoquinolin-3-yl)-4-isoquinolinesulfonamide] was run?
The IC50 was 0.87 µg/mL (≈ 1.89 µM).

`N#Cc1ccc(S(=O)(=O)Nc2ccc3c(Cl)cccc3n2)cc1` [Example 24, 4-Cyano-N-(5-chloroquinolin-2-yl)-benzenesulfonamide] was tested. Which IC50 did it give?
Its IC50 is 0.49 µg/mL (≈ 1.43 µM).

`CCNS(=O)(=O)c1ccc(S(=O)(=O)Nc2ccc3c(Br)cccc3n2)cc1` [Example 27, N-(5-Bromoquinolin-2-yl)-4-(N-ethylsulfamoyl)benzenesulfonamide] was tested. Which IC50 did it give?
Its IC50 is 0.08 µg/mL (≈ 0.17 µM).

For `N#Cc1ccc(S(=O)(=O)Nc2cnc3c(C(F)(F)F)cccc3c2)cc1` [Example 38, N-(8-Trifluoromethylquinolin-3-yl)-4-cyanobenzenesulfonmide], which IC50 is on record?
The IC50 was 0.15 µg/mL (≈ 0.398 µM).

How did the IC50 turn out when `O=S(=O)(Nc1cnc2c(Br)cccc2c1)c1ccc2c(c1)SCCO2` [Example 47, N-(8-Bromoquinolin-3-yl) -4-oxa-7-thiochromansulfonamide] was run?
Its IC50 is 0.09 µg/mL (≈ 0.206 µM).

`CC(=O)NCCc1ccc(S(=O)(=O)Nc2cnc3c(Br)cccc3c2)cc1` [Example 48, N-(8-Bromoquinolin-3-yl)-4-(2-acetamideethyl)benzenesulfonamide] was tested. Which IC50 did it give?
Its IC50 is 0.35 µg/mL (≈ 0.781 µM).

How did the IC50 turn out when `O=S1(=O)CCCc2cc(S(=O)(=O)Nc3cnc4c(Br)cccc4c3)ccc21` [Example 50, N-(8-Bromoquinolin-3-yl) -1,1-dioxide-6-yl-sulfonamide] was run?
The IC50 was 0.31 µg/mL (≈ 0.663 µM).

With `COc1ccc(S(=O)(=O)Nc2cnc3c(Br)cccc3c2)nn1` [Example 53] as the compound, how does the IC50 read?
The IC50 was 0.53 µg/mL (≈ 1.34 µM).

Which IC50 does the source give for `O=S(=O)(Nc1ccc2c(Br)cncc2c1)c1ccc(Cl)nc1` [Example 59, N-(4-Bromoisoquinolin-7-yl)-6-chloro-3-pyridinesulfonamide] here?
The IC50 was 0.2 µg/mL (≈ 0.502 µM).

For `N#Cc1ccc(S(=O)(=O)Nc2ccc3c(Cl)nccc3c2)cc1` [Example 61, 1-Chloro-6-(4-cyanobenzenesulfonylamino)isoquinoline], which IC50 is on record?
Its IC50 is 0.3 µg/mL (≈ 0.873 µM).

With `COc1nccc2cc(NS(=O)(=O)c3ccc(N)nc3)ccc12` [Example 69, 6-(2-Aminopyridin-5-ylsulfonylamino)-1-methoxyisoquinoline] as the compound, how does the IC50 read?
Its IC50 is 0.15 µg/mL (≈ 0.454 µM).

Which IC50 does the source give for `COc1nccc2cc(NS(=O)(=O)c3ccc(-c4nccs4)cc3)ccc12` [Example 77, 1-Methoxy-6-(4-thiazol-2-ylbenzenesulfonylamino)isoquinoline] here?
Its IC50 is 0.39 µg/mL (≈ 0.981 µM).

How did the IC50 turn out when `CCc1nccc2cc(NS(=O)(=O)c3ccc(Cl)cc3)ccc12` [Example 80, 6-(4-Chlorobenzenesulfonylamino)-1-ethylisoquinoline] was run?
Its IC50 is 0.2 µg/mL (≈ 0.577 µM).

With `CCc1cncc2ccc(NS(=O)(=O)c3ccc(Cl)cc3)cc12` [Example 81] as the compound, how does the IC50 read?
Its IC50 is 0.85 µg/mL (≈ 2.45 µM).

For `N#Cc1nccc2cc(NS(=O)(=O)c3ccc(Cl)cc3)ccc12` [Example 84, 6-(4-Chlorobenzenesulfonylamino)-1-cyanoisoquinoline], which IC50 is on record?
The IC50 was 0.14 µg/mL (≈ 0.407 µM).

How did the IC50 turn out when `C=Cc1cccc2nc(NS(=O)(=O)c3cccnc3)ccc12` [Example 91, N-(5-Vinylquinolin-2-yl)-3-pyridinesulfonamide] was run?
Its IC50 is 0.33 µg/mL (≈ 1.06 µM).

For `O=c1cc(C(F)(F)F)c2ccc(NS(=O)(=O)c3ccc(Cl)cc3)cc2o1` [Example 92, N-(4-Trifluoromethylcoumarin-7-yl)-4-chlorobenzenesulfonamide], which IC50 is on record?
The IC50 was 0.2 µg/mL (≈ 0.495 µM).
